The source of these data is patent EP0182271A2, “Nb-quaternary dibromo derivatives of ajmaline, isoajmaline, sandwicine and isosandwicine, pharmaceutical compositions containing them, intermediates and process for their preparation” (priority 1984, dated 1986).

Data set [1] can be described thus: Acute 7-day toxicity in mice after a single p.o. dose. Set-up: species or system Maus. The conditions noted are these: in vivo, po, mouse (male NMRI), 50 % mortality on day 7, probit analysis, read-out: Toxizität LD50. The text has this:
(§1) Beschreibung der pharmakologischen Versuchsmethoden: • 1. Bestimmung der akuten 7-Tage-Toxizität in Mausen. Die akute Toxizität der Wirkstoffe wird in männlichen NMRI-Mäusen (Körpergewicht 18-22 g) nach einmaliger p.o.-Applikation bestimmt. Die LD50 wird als die Dosis in uMol/kg definiert, welcher eine 50 % Mortalität der Tiere am 7. Tag nach der Applikation entspricht. Die LD50-Werte werden durch eine Probit-Analyse errechnet. • 2. Bestimmung der Hemmwirkung der Substanzen auf durch Aconitin-Infusion induzierte Herzrhythmusstörungen in Ratten.

Data set [2] concerns durch Aconitin-Infusion induzierte Herzrhythmusstörungen. In words: Inhibition of aconitine-infusion-induced cardiac arrhythmias in rats (method of Raschak). The class given is in vivo, Ratte. As to conditions: Rattus norvegicus, po, 3 h.
From the text: as §1
Die Hemmwirkung auf durch Aconitin-Infusion in Ratten verursachte Herzrhythmusstörungcn (Extrasystolen (ES), ventrikuläre Tachykardie (VT) und Kammerflattern (KF)) werden nach der Methode von Raschak (Arzneimittelforsch. 25 (1975), 639-641) bestimmt.
Männliche Ratten mit einem Körpergewicht von 320-400 g werden durch i.p. Applikation von 1,25 g/kg Urethan narkotisiert. Die Tiere werden auf den Rücken gelegt und ihr Elektrokardiogramm wird während des Versuches alle 30 Sekunden gemessen. Den Tieren wird eine i.v. Aconitin-Infusion mit einer Infusionsgeschwindigkeit von 5 µg/kg/min Aconitin und einem Infusionsvolumen von 0,1 ml/min verabreicht. Drei Stunden vor Beginn der Aconitin-Infusion werden den Tieren die Testsubstanzen p.o. in einer Menge von 2 ml/kg Körpergewicht 2%-iger Tylose-Lösung verabreicht. Einer Kontrollgruppe wird nur die Tylose-Lösung verabreicht. Die Infusionsdauer bis zum Auftreten der verschiedenen Herzrhythmusstörungen wird bestimmt.
Antiarrhythmisch wirksame Testverbindungen führen zu einer Verzögerung des Auftretens der Aconitin-induzierten Herzrhythmusstörungen in den behandelten Tieren im Vergleich zu den Kontrolltieren. Aus dem Ausmaß der Verlängerung der Aconitininfusionsdauer und somit der Erhöhung der verabreichten Aconitinmenge, bis zu welcher die Tiere gegen die durch Aconitin induzierten Herzrhythmusstörungen geschützt sind, läßt sich auf die Stärke der antiarrhythmischen Wirksamkeit der Testsubstanzen schließen. Als ED150 wird die Dosis der Testsubstanzen bestimmt, bei welcher die jeweiligen Herzrhythmusstörungen erst nach der Verlängerung der Aconitinfusionsdauer auf 150 % auftreten.

The subject of data set [3] is ADP-induzierter Plättchenaggregation in PRP-K. In words: Inhibition of ADP-induced platelet aggregation in platelet-rich rabbit plasma (PRP/K), method of Born. In kind it is cell-based, Kaninchen. The conditions noted are these: Oryctolagus cuniculus, 10-6 Mol/l ADP, read-out: % Hemmwirkung gegenüber ADP-induzierter Plättchenaggregation in PRP-K. The text has this:
3. Bestimmung der Hemmwirkung auf durch ADP induzierte Blutplättchenaggregation im blutplättchenreichen Kaninchenblutplasma (PRP/K).
Die in-vitro-Bestimmung der antiaggregatorischen Wirkungen der Substanzen wurde nach der Methode von Born (Nature 194, 927 (1962)), modifiziert für Mikrobestimmungen nach Sim et al (Thromb. Res. 1, 655 (1975)) durchgeführt.
PRP/K wird durch Zentrifugieren von mit Antikoagulanz versetztem Kaninchenblut auf bekannte Weise erhalten. Als Kontrollwerte für die photometrische Bestimmung der Aggregationshemmung werden die optische Dichte des unbehandelten PRP/K (^ß0 % Aggregation) und von PRP/K, in welchem Blutplättchenaggregation durch Behandlung von 10-^6 Mol/1 ? ADP erzeugt wurde (100 % Aggregation), gemessen.
Zur Bestimmung der aggregationshemmmenden Wirkungen der Wirkstoffe werden Proben PRP/K mit einer bestimmten Wirkstoffdosis versetzt und dann mit 10-^6 Mol/1 ADP behandelt. Die Verringerung der optischen Dichte gegenüber der des unbehandelten PRP/K wird gemessen und mit der bei der Behandlung von wirkstoffreiem PRP/K mit 10-^6 Mol/l ADP aufgetretenen optischen Dichteverringerung verglichen. Hieraus wird die durch die eingesetzte Wirkstoffdosis entfaltete Hemmwirkung in % Hemmung der in wirkstoffreiem PRP/K verursachten Aggregation berechnet. Die in diesem Test mit Wirkstoffen der Formel I erhaltenen Ergebnisse werden in der nachstehenden Tabelle II wiedergegeben. Die folgenden Tabellen I und II geben nach den vorstehend beschriebenen Testmethoden erhaltene Ergebnisse wieder. Die für die Verbindungen der Formel I angegebenen Beispielsnummern beziehen sich auf die nachstehenden Herstellungsbeispiele.

Where [4] appears, read: read-out: Hemmwirkung gegenüber aconotininduzierten Herzrhythmusstörungen ED150 ES.
Where [5] appears, read: read-out: Hemmwirkung gegenüber aconotininduzierten Herzrhythmusstörungen ED150 KF.
[6] abbreviates: read-out: Hemmwirkung gegenüber aconotininduzierten Herzrhythmusstörungen ED150 VT.

Like-named read-outs stand apart in the source and are kept apart here.

As for `CCC1C2CC3C4N(C)c5c(Br)cc(Br)cc5C45CC(C2C5O)[N+]3(C)C1O` (stereo not shown) [Beispiel 12, Nb-Methyl-10,12-dibromisosandwicinium-hydrogenfumarat], the LD50 (in general, the dose at which mortality reaches 50%) at 168 h in data set [1] amounted to 2400 µmol/kg. Also, the ED150 in data set [2] (setting [4]) was 49 µmol/kg; in data set [2] (setting [5]), 58 µmol/kg; in data set [2] (setting [6]) it was 64 µmol/kg. Also, the inhibition at 100 µg/mL in data set [3] was 83%.
For `CCC1C2CC3C4N(C)c5c(Br)cc(Br)cc5C45CC(C2C5O)[N+]3(CCN2CCOCC2)C1O` (stereo not shown) [Beispiel 62], the LD50 at 168 h in data set [1] was found to be 379 µmol/kg. For the same molecule, the ED150 came out at 11 µmol/kg in data set [2] (setting [4]), 13 µmol/kg in data set [2] (setting [5]) and 11 µmol/kg in data set [2] (setting [6]). Besides, in data set [3], the inhibition at 100 µg/mL was 100%.
For `CCC1C2CC3C4N(C)c5c(Br)cc(Br)cc5C45CC(C2C5O)[N+]3(CCC(C)C)C1O` (stereo not shown) [Beispiel 2, Nb-(3-Methylbutyl)-10,12-dibromajmalinium-chlorid], in data set [1], the 50% lethal dose (LD50) at 168 h is 277 µmol/kg. Moreover, the ED150 in data set [2] (setting [4]) was determined as 9 µmol/kg; in data set [2] (setting [5]), 11 µmol/kg; in data set [2] (setting [6]), 6 µmol/kg.
As for `CCC1C2CC3C4N(C)c5c(Br)cc(Br)cc5C45CC(C2C5O)[N+]3(CCCN2CCOCC2)C1O` (stereo not shown) [Beispiel 8, Nb-(3-Morpholinopropyl)-10,12-dibromisoajmalinium-chlorid], in data set [3], the inhibition at 100 µg/mL is 100%.
For the molecule `CCC1C2CC3C4N(C)c5c(Br)cc(Br)cc5C45CC(C2C5O)[N+]3(C)C1O` (stereo not shown) [Beispiel 16], the inhibition at 50 µg/mL in data set [3] (dose 50 µg/ml) amounted to 81%.
